As a reminder, the viability is a read-out of living cells in per cent, often relative to untreated cells. A word on the IC50: it is the concentration that inhibits the measured activity by half.

Here are results for six compounds from paper PMC8346996, “Antiradical Properties of N-Oxide Surfactants—Two in One” (International Journal of Molecular Sciences, 2021).

The nature of data set [1]: DPPH• scavenging kinetics by UV-vis, pseudo-first-order conditions. To be noted: for second-order rate constant k2 for the reaction with DPPH•: ethanol, 298 K, deaerated, DPPH• 2.2 × 10^−4 M, surfactant 0.012-0.12 M; for k2 higher in comparison with the CnPDA homolog: reaction with DPPH•. The procedure: After confirming that the absorption maximum at 517 nm of DPPH• is outside the surfactant’s absorption range, the rate of the DPPH•-scavenging reaction of the N-oxides was measured by monitoring the decrease in absorbance of this maximum. To ensure that the decay of DPPH• obeyed pseudo-first-order kinetics, the concentration of surfactants was at least a 54-fold excess of the DPPH• concentration. As explained in SI, the calculated pseudo-first-order rate constants, kobs, increased linearly with the concentration of Cn(DAPANO)2 and CnPDA (shown in SI). The second-order rate constants k2 for the reaction between the N-oxides and DPPH• were determined from the slopes of the linear plots of kobs vs. the concentration of the surfactants and are given in Figure 6.
The measurements were done under deaerated conditions at 298 K in ethanol solutions (2 mL in a 10 mm quartz cuvette) containing DPPH^• (C = 2.2 × 10^−4 M) and a surfactant at each of five different concentrations, namely C1 = 0.12 M, C2 = 0.09 M, C3 = 0.06 M, C4 = 0.03 M, and C5 = 0.012 M. UV−vis spectral changes associated with the undergoing reaction were monitored at 516 nm, using a Varian Cary 50Conc UV−visible Spectrophotometer. The following equations of the calibration curve were used to calculate DPPH^• concentrations in the reaction system: Abs = 4.0189 × C[mM] + 0.00813 (R^2 = 0.9998). The rate of DPPH^• scavenging reaction was determined using pseudo-first-order kinetics (the concentration of CnPDA or Cn(DAPANO)2 was maintained at more than 54-fold excess of the radical concentration); further details are given as Supporting Information.
(In general: DPPH is a stable violet radical that fades when it is reduced.)

A short description of data set [2]: MTT cell viability assay, HaCaT. The data set is classed as cell-based, human. To be noted: human, HaCaT cells (immortalized human keratinocytes), evaluated for CMC. The method, then: (§1) HaCaT (immortalized human keratinocytes from histologically normal skin) cell line was obtained from the CLS Cell Lines Service GmbH (Eppelheim, Germany). HGFs (human gingival fibroblasts) derive from primary cell culture. The cells were isolated according to the procedure described by Saczko et al. and patented by Saczko et al.. Cells were grown in plastic cell culture flasks in Dulbecco’s Modified Eagle’s Medium, supplemented with fetal bovine serum (FBS, Lonza, Morrisville, NC, USA), with 100 IU/mL penicillin, 50 mg streptomycin, and 125 μg amphotericin B (Sigma). The cells were maintained in a humidified atmosphere at 37 °C and 5% CO2. The cells were regularly maintained by systematic passaging. For experimental purposes, the cells were removed by trypsinization (0.25% Trypsin-EDTA, Sigma).
(§2) MTT (Sigma) test was used to determine the viability of HaCaT and HGFs cells. The MTT assay was used to test mitochondrial metabolic functioning. Cells were seeded on flat bottom 96-well tissue culture plates at a density of 10^4 cells/well and allowed to grow in a CO2 incubator at 37 °C overnight. In the case of these studies, the culture medium was removed, surfactant solutions were added, and the cells were exposed for 24 and 48 h to compounds at doses ranging from 50 to 2000 μg/mL. After incubation, MTT assay was applied according to the manufacturer protocol. The absorbance was measured at 570 nm using a multiwell plate reader (EnSpire Multimode Reader, Perkin Elmer). Each experiment was performed in a few independent repetitions. Mean values and standard deviations of all results were calculated. The final results were expressed as the percentage of mitochondrial function relative to untreated control cells.

Data set [3] relates to normal human keratinocytes (HaCaT). The experiment in a line: MTT cell viability assay, HaCaT. The data set is classed as cell-based. To be noted: Homo sapiens, HaCaT, MTT. The procedure: as §1, §2
Data set [4] is described as follows: MTT cell viability assay, HGFs. The data set is classed as cell-based, human. To be noted: human, primary human gingival fibroblasts (HGFs), evaluated for CMC; for viability at 24 h: read-out: Viability 24 h HGF’s; for viability at 48 h: read-out: Viability 48 h HGF’s. The method, then: as §1, §2
On the technique in general: Formazan colour is commonly taken as a measure of viable cells.

Data set [5] has as its system primary fibroblasts (HGFs). The experiment in a line: MTT cell viability assay, HGFs. The data set is classed as cell-based, human. To be noted: Homo sapiens, Fibroblast, MTT. The procedure:
as §1, §2

Details of data set [6]: method as in PMID 23098238. To be noted: cited from earlier work.
On the set-up of data set [7]: method as in PMID 23098238. To be noted: cited from earlier work. This is another data set of the same source.
The subject of a further data set is primary fibroblasts. Put plainly: ROS evaluation (DCF assay), primary fibroblasts. It is filed as cell-based, human. To be noted: after ROS induction by DHTTP; surfactant in CMC concentration. The method, then:
(§3) Antioxidative properties of the tested surfactant were evaluated. To induce ROS production, a DPPH solution was prepared (C = 2.55 × 10^−3 mol/dm3). Normal fibroblasts and keratinocytes were seeded on flat bottom 96-well tissue culture plates at a density of 10^4 cells/well and allowed to grow in a CO2 incubator at 37°C overnight. Then, culture medium was removed and 200 µL of DPPH solution in DMEM was added to the plate and left for 1 h in a CO2 incubator at 37 °C. After incubation, DPPH solution was removed and ROS production was determined using DCF assay (Life Technologies, Warsaw, Poland). The DCF assay was conducted with 6-carboxy-2′,7′-dichlorodihydrofluorescein diacetate 2′,7′-dichlorofluorescein (carboxy-H2DCFDA). After deacetylation of H2DCFDA to H2DCF or carboxy-H2DCFDA to carboxy-H2DCF, cellular ROS oxidize H2DCF and carboxy-H2DCF to 2′,7′-dichlorofluorescein (DCF) and 2′,7′-carboxydichlorofluorescein (carboxy-DCF), respectively. The carboxy-H2DCFDA was dissolved in sterile DMSO to generate a stock solution of 50 µg/mL. For experiments, the stock solution of carboxy-H2DCFDA was brought to room temperature in the dark and then diluted in a cell culture medium without FBS. After washout of the incubation medium from cells with PBS, the reagent was added to cell culture to a final concentration of 10 µM and for 30 min was incubated at 37 °C in darkness. After incubation, excitation wavelength of 495 nm and emission wavelength of 530 nm were used by a multiwell scanning spectrophotometer (EnSpire Perkin Elmer, Krakow, Poland). In the next stage, surfactant solutions in CMC concentrations were added into cells after 1 h incubation with DHTTP solution. Cells were incubated, and ROS were detected 30 min by a multiwell scanning spectrophotometer (EnSpire Perkin Elmer, Poland).

The test system of the next data set is human keratinocytes. The experiment in a line: ROS evaluation (DCF assay), human keratinocytes. It is filed as cell-based. To be noted: after ROS induction by DHTTP; surfactant in CMC concentration. The method, then:
as §3

Data set [8] can be described thus: Hydrodynamic radius of micelles by dynamic light scattering (DLS). It is filed as physicochemical. To be noted: 298 K, surfactant at 100 x CMC. The method, then:
The hydrodynamic diameter for CnPDA was determined by the DLS method. The measurements were performed using a Nano Series Zetasizer from Malvern Instruments (UK) with a detection angle of 173°, equipped with a He−Ne laser (632.8 nm) and an ALV 5000 multibit multitau autocorrelator. Before the measurements, the samples were filtered through a filter (with a pore size of 0.2 μm) directly into the optical cell to remove any impurities. All of the DLS measurements were performed at 298 ± 0.1 K and at a surfactant concentration a hundred times higher than the critical micelle concentration (CMC). Each value was obtained as the average of three runs with at least 10 measurements. The DTS software (Nano) was used to evaluate the data.

Setting [9] is: 24 h incubation, read-out: IC50 HaCaT 24 h.
Setting [10] is: 48 h incubation, read-out: IC50 HaCaT 48 h.
Setting [11] is: 24 h incubation, read-out: IC50 HGFs 24 h.
[12] abbreviates: 48 h incubation, read-out: IC50 HGFs 48 h.

In brackets after ≈: the same amount, converted by molar mass. Where two headings read alike, the source gives them in different places. Marks after values point to notes of the source that are not given here.

With `CCCCCCCCCC(=O)N(CCC[N+](C)(C)[O-])CCC[N+](C)(C)[O-]` [C10(DAPANO)2], the “second-order rate constant k2 for the reaction with DPPH•” value (“second-order rate constant k2” below) in [1] was 0.000947 M⁻¹ s⁻¹. Also, in [1], the “k2 higher in comparison with the CnPDA homolog” value was 11%. Also, the viability at 24 h is 8.1% in data set [2] and 16.2% in data set [4]. Besides, the viability at 48 h amounted to 18.2% in data set [2] and 9.7% in data set [4]. Also, the IC50 was 98 µg/mL (≈ 262 µM) in data set [3] (setting [9]), 97 µg/mL (≈ 260 µM) in data set [3] (setting [10]), 34.5 µg/mL (≈ 92.3 µM) in data set [5] (setting [11]) and 1.9 µg/mL (≈ 5.09 µM) in [5] (setting [12]). For the same compound, in data set [6], the CMC was 3.0·10^−2 a M. Further, the “RH DLS” value in data set [7] was 1.75 ^a nm.
For the compound `CCCCCCCCCCCCCCCC(=O)N(CCC[N+](C)(C)[O-])CCC[N+](C)(C)[O-]` [C16(DAPANO)2], the “second-order rate constant k2” value in data set [1] stood at 0.00138 M⁻¹ s⁻¹. In addition, the “k2 higher in comparison with the CnPDA homolog” value in [1] is 10%. Further, the viability at 24 h amounted to 14.7% in data set [2] and 27.8% in data set [4]. Besides, the values for the viability at 48 h in data set [2] and in [4] were 3.9% and 12.3%, respectively. In addition, the IC50 came to 29 µg/mL (≈ 63.4 µM) in data set [3] (setting [9]), 18.2 µg/mL (≈ 39.8 µM) in data set [3] (setting [10]), 14.3 µg/mL (≈ 31.2 µM) in data set [5] (setting [11]) and 0.76 µg/mL (≈ 1.66 µM) in [5] (setting [12]). For the same compound, the “radical (ROS) level, DCF fluorescence” value in the data set on primary fibroblasts and in the data set on human keratinocytes was “not significant decrease in radical level” each time. Further, in data set [6], the CMC is recorded as 1.5·10^−4 a M. Further, the “RH DLS” value in data set [7] is recorded as 2.38 ^a nm.
With `CCCCCCCCCCCCCCCC(=O)NCCC[N+](C)(C)[O-]` [C16PDA], the “RH DLS” value in [8] amounted to 2.27 nm. Further, the “second-order rate constant k2” value in data set [1] was 0.00125 M⁻¹ s⁻¹. Further, the viability at 24 h in [2] was 140%; in data set [4], 96.9%. The figures for the viability at 48 h in [2] and in data set [4] were 123% and 81.7%, respectively. Also, the IC50 in data set [3] (setting [9]) was 48.1 µg/mL (≈ 135 µM); in data set [3] (setting [10]) it was 9.8 µg/mL (≈ 27.5 µM); in [5] (setting [11]), 44.1 µg/mL (≈ 124 µM); in data set [5] (setting [12]), 1.9 µg/mL (≈ 5.33 µM).
With `CCCCCCCCCCCCCC(=O)N(CCC[N+](C)(C)[O-])CCC[N+](C)(C)[O-]` [C14(DAPANO)2], the “second-order rate constant k2” value in data set [1] stood at 0.00117 M⁻¹ s⁻¹. Moreover, the “k2 higher in comparison with the CnPDA homolog” value in data set [1] came out at 16%. In addition, the viability at 24 h was 11.3% in [2] and 17.7% in [4]. The results for the viability at 48 h in data set [2] and in data set [4] were 4.5% and 11.5%, respectively. Also, the IC50 turned out to be 32 µg/mL (≈ 74.5 µM) in [3] (setting [9]), 17 µg/mL (≈ 39.6 µM) in [3] (setting [10]), 68.5 µg/mL (≈ 159 µM) in data set [5] (setting [11]) and 0.89 µg/mL (≈ 2.07 µM) in data set [5] (setting [12]). Also, the “radical (ROS) level, DCF fluorescence” value in the data set with primary fibroblasts and in the data set on human keratinocytes was “not significant decrease in radical level” in each case. Also, the CMC in data set [6] is recorded as 8.0·10^−4 a M. Further, the “RH DLS” value in data set [7] is 2.28 ^a nm.
Regarding `CCCCCCCCCC(=O)NCCC[N+](C)(C)[O-]` [C10PDA], the “RH DLS” value in [8] is reported as 1.67 nm. Further, in data set [1], the “second-order rate constant k2” value is 0.000853 M⁻¹ s⁻¹. The results for the viability at 24 h in [2] and in data set [4] were 34.7% and 98.6%, respectively. Moreover, the viability at 48 h came out at 84.8% in data set [2] and 20.2% in [4]. For the same compound, the IC50 in [3] (setting [9]) is 43.8 µg/mL (≈ 161 µM); in [3] (setting [10]) it was 41.5 µg/mL (≈ 152 µM); in [5] (setting [11]) it was 77.9 µg/mL (≈ 286 µM); in [5] (setting [12]), 38.7 µg/mL (≈ 142 µM).
On to `CCCCCCCCCCCCCC(=O)NCCC[N+](C)(C)[O-]` [C14PDA], for which the “RH DLS” value in data set [8] is recorded as 2.19 nm. The “second-order rate constant k2” value in data set [1] turned out to be 0.00101 M⁻¹ s⁻¹. Also, the viability at 24 h in data set [2] came out at 81.1%; in [4], 104%. Moreover, the viability at 48 h in data set [2] worked out at 119%; in [4], 78.2%. For the same compound, the IC50 in [3] (setting [9]) came out at 48.1 µg/mL (≈ 146 µM); in data set [3] (setting [10]) it was 9.9 µg/mL (≈ 30.1 µM); in [5] (setting [11]), 69.9 µg/mL (≈ 213 µM); in [5] (setting [12]), 1.6 µg/mL (≈ 4.87 µM). In addition, the “radical (ROS) level, DCF fluorescence” value with primary fibroblasts and with human keratinocytes was “most significant decrease of fluorescence level” in each case.
